From patent publication EP4813999A1, “NOVEL PEPTIDE DERIVATIVE AND PHARMACEUTICAL COMPOSITION FOR PREVENTING OR TREATING MACULAR DEGENERATION COMPRISING SAME” (Supadelixir Inc., priority 2023, dated 2026)

Key:
Type in all cases: cell-based, human
[1] = tested on: HUVECs; experiment: VEGF-induced tube formation on Matrigel; settings: VEGF 10 ng/ml, test substance 0.1, 1, 10, 100 nM, 24 hours
Experimental: The anti-angiogenic activity of the test substance (SE101B2L) was evaluated using HUVECs. HUVECs were cultured in CEFOgro-HUVEC basal medium (CEFO Co., Ltd.) supplemented with growth supplements containing vascular endothelial cell growth-related factors and serum (HUVEC supplements, CEFO Co., Ltd.), which was used as vascular endothelial cell growth medium (hereinafter denoted as "growth medium").
(§1) The experiment was conducted by dividing the groups into an untreated group, a group treated with VEGF alone, and a group co-treated with VEGF and the test substance (SE101B2L).
First, tube formation ability was confirmed to determine whether the test substance inhibited VEGF-induced angiogenesis. HUVECs were seeded into a Matrigel-coated 48-well plate at 5 × 10^4 cells per well together with 0.5 ml of growth medium. VEGF was added to each VEGF-treated group to a final concentration of 10 ng/ml, while the test substance was added to each test substance-treated group to final concentrations of 0.1, 1, 10, and 100 nM. The test plate was incubated in an incubator with 5% CO2 at 37°C for 24 hours. After 24 hours, the degree of tube formation was observed under a microscope and photographed. The total tube length in each image was measured using the ImageJ program. The results were converted to values relative to the tube length for the untreated group.

[2] = tested on: AKT and ERK; experiment: VEGF-induced phosphorylation of AKT and ERK (immunoblot); settings: HUVECs; VEGF co-treatment; test substance 0.1, 1, 10, 100 nM; 10 minutes
Experimental: as §1
Additionally, whether the test substance could regulate the phosphorylation levels of AKT and ERK molecules, which are important in signaling related to VEGF-induced angiogenesis, was tested. Into a 6-well plate containing 2 ml of growth medium, 2 × 10^5 HUVECs were added and seeded, followed by incubation in an incubator with 5% CO2 at 37°C for one day. Subsequently, after washing the cells with phosphate-buffered saline (PBS), incubation was performed for an additional 6 hours using CEFOgro-HUVEC medium containing 1% fetal bovine serum. The prepared cells were divided into an untreated group, a group treated with VEGF alone, and groups co-treated with VEGF and the test substance (0.1, 1, 10, and 100 nM), followed by treatment with the test substance. […] Protein amounts of the cell lysates were measured by a Bradford assay, followed by separation using sodium dodecyl sulfate-polyacrylamide gel electrophoresis (SDS-PAGE). […]

[3] = tested on: VE-cadherin and ZO-1; experiment: Expression levels and patterns of junctional proteins (immunofluorescence); settings: HUVECs; VEGF 50 ng/mL, 90 minutes; test substance 10 and 100 nM
Description: Whether the test substance (SE101B2L) could regulate changes in permeability caused by VEGF-induced changes in membrane protein stability of vascular endothelial cells was confirmed. Expression levels and patterns of VE-cadherin and ZO-1, which are junctional proteins associated with vascular stability and permeability and connect cells to one another, were confirmed. One circular coverslip having a diameter of 12 mm was placed in each well of a 24-well plate, and gelatin was applied using a 2% gelatin solution to facilitate cell attachment. Into the prepared wells, 1 × 10^5 HUVECs were seeded per well. The cells were cultured in an incubator with 5% CO2 at 37°C for 4 days, with the growth medium replaced every other day. After confirming that the cells had become completely confluent, the cells were incubated for 1 hour using serum-free CEFOgro-HUVEC medium. At this time, the test substance was added to the corresponding wells to final concentrations of 10 and 100 nM. Upon completion of the incubation, VEGF at a final concentration of 50 ng/mL was added, followed by incubation for an additional 90 minutes. The incubated samples were fixed at room temperature for 15 minutes using a 10% formalin solution. […] The corresponding samples were photographed under a fluorescence microscope.

[4] = tested on: HUVECs; experiment: VEGF-induced chemotactic cell migration (transwell chamber); settings: VEGF 10 ng/ml, test substance 0.1, 1, 10, 100 nM, 3 hours
Experimental: as §1
In addition, whether the test substance could inhibit VEGF-induced changes in cell migration ability in HUVECs was confirmed. In terms of cell migration ability, changes in chemotactic cell migration were confirmed using a transwell chamber (24-well plate type). After coating the lower surface of a transwell insert membrane having a diameter of 6.5 mm and a pore size of 8.0 µm with 10 µg of gelatin, 5 × 10^4 cultured HUVECs were seeded into the inserts using 0.1 ml of HUVEC basal medium. The test substance was added to each test substance-treated group to final concentrations of 0.1, 1, 10, and 100 nM, and VEGF, together with HUVEC basal medium, was added to the lower wells configured in a 24-well plate format to a final concentration of 10 ng/ml, followed by incubation in an incubator with 5% CO2 at 37°C for 3 hours. Thereafter, the medium was removed from the inserts of the test groups, and the inserts were fixed using a 10% formalin solution. […] Migrated cells in each test group were photographed, and the number of cells was counted. The number of counted cells was converted to values relative to that of the untreated group, thereby calculating the results.

Substance: decylbenzoyl-Cys-Phe-Lys-amide [SE101B2L]
- tube formation ability (total tube length) [1]: reduced by the test substance in a concentration-dependent manner
- phosphorylation levels of signaling molecules (AKT, ERK) [2]: reduced by the test substance in a concentration-dependent manner
- expression levels and patterns of junctional proteins between cells (VE-cadherin, ZO-1) [3]: appear similarly to those of the untreated group in a concentration-dependent manner
- cell migration ability (number of migrated cells) [4]: reduced by the test substance in a concentration-dependent manner
